Results from US4447626A, “ML-236B Derivatives” (Sankyo Company Limited, priority 1981, dated 1984).

Test system: cholesterol biosynthesis
Assay: Inhibition of cholesterol biosynthesis (method of J. Biol. Chem. 234, 2835 (1959))
Assay type: biochemical
Details: method of Journal of Biological Chemistry, 234, 2835 (1959)
From the text: The inhibitory activities of certain of the compounds of the invention, in terms of the concentration in μg/ml required to inhibit cholesterol biosynthesis by 50% [measured by the method described in the Journal of Biological Chemistry, 234, 2835 (1959)], are as follows: […]

Row | Structure (SMILES) | concentration required to inhibit cholesterol biosynthesis by 50%
1 | CC[C@H](C)C(=O)O[C@H]1CCC=C2C=C[C@H](C)[C@H](CC[C@@H]3C[C@@H](O)CC(=O)O3)[C@H]21 [ML-236B lactone, reference compound] | 0.010 µg/mL
2 | CC[C@H](C)C(=O)O[C@H]1CC=CC2=CC(OC)[C@H](C)[C@H](CC[C@@H]3C[C@@H](O)CC(=O)O3)[C@H]21 (stereo partly drawn) [6-methoxy-IsoML-236B lactone] | 0.015 µg/mL
3 | CC[C@H](C)C(=O)O[C@H]1CC=CC2=CC(OC)[C@H](C)[C@H](CC[C@@H](O)C[C@@H](O)CC(=O)O)[C@H]21 (stereo partly drawn) [Sodium 6-methoxy-IsoML-236B carboxylate, sodium 6-methoxy-IsoML-236B carboxylate] | 0.0044 µg/mL
